This is an account of results in patent US4966907A, “6-substituted 5-hydroxy-2,3-dihydrobenzofurans as inhibitors of leukotriene biosynthesis” (Merck & Co., Inc., priority 1988, dated 1990).

The test system of assay [1] is LTB4 production in isolated human polymorphonuclear leucocytes (PMN). Description: inhibition of LTB4 production in isolated human polymorphonuclear leukocytes (PMN), A23187-stimulated, radioimmunoassay. In kind it is cell-based. As to conditions: Leucocyte, 5 min, 5 min at 37° C. An excerpt:
A. Preparation of Human PMN
Human blood is obtained by antecubital venepuncture from consenting volunteers who denied having taken medication within the previous 7 days. The blood is immediately added to 10% (v/v) trisodium citrate (0.13M) or 5% (v/v) sodium heparin (1000 IU/mL). PMNs are isolated from anticoagulated blood by dextran sedimentation and centrifugation through Ficoll Hypaque (specific gravity 1.077), essentially as described by Boyum. (Boyum, A., Scand. J. Clin. Lab. Invest 1968, 21 (Supp 97), 77). Contaminating erythrocytes are removed by lysis following exposure to ammonium chloride (0.16M) in Tris buffer (pH 7.65), and the PMNs resuspended at 5×10^5 cells/mL in HEPES (15 mM) buffered Hanks balanced salt solution containing Ca^2+ (1.4 mM) and Mg^2+ (0.7 mM), pH 7.4. Viability is assessed by Trypan blue exclusion and is typically greater than 98%.
B. Generation and Radiommumoassay of LTB4
PMNs 0.5 mL; 2.5×10^5 cells) are placed in plastic tubes and incubated (37° C., 2 min) with test compounds at the desired concentration or vehicle control (DMSO, final concentration 0.2%). The synthesis of leukotriene B4 (LTB4) is initiated by the addition of calcium ionophore A23187 (final concentration 10 μM) or vehicle on control samples and allowed to proceed for 5 minutes at 37° C. The reactions are then terminated by the addition of cold methanol (0.25 mL) and samples of the entire PMN reaction mixture are removed for radiommunoassay of LTB4.
Samples (50 μl) of authentic LTB4 of known concentration in radiommunoassay buffer (RIA) buffer (potassium phosphate 1 mM; disodium EDTA 0.1 mM; Thimerosal 0.025 mM; gelatin 0.1%, pH 7.3) or PMN reaction mixture diluted 1:1 with RIA buffer are added to reaction tubes.
Thereafter [3H]LTB4 (10 nCu in 100 μl RIA buffer) and LTB4 antiserum (100 μL of a 1:3000 dilution in RIA buffer) are added and the tubes vortexed. Reactants are allowed to equilibrate by incubation overnight at 4° C. To separate antibody bound from free LTB4, aliquots (50 μL) of activated charcoal (3% activated charcoal in RIA buffer containing 0.25% Dextran T-70) were added, the tubes vortexed, and allowed to stand at room temperature for 10 minutes prior to centrifugation (1500×g; 10 min; 4° C.). The supernatents containing antibody-bound LTB4 are decanted into vials and Aquasol 2 (4 mL) is added. Radioactivity is quantified by liquid scintillation spectrometry. […] The specificity of the antiserium and the sensitivity of the procedure have been described in detail elsewhere. (Rokach, J.; Hayes, E. C.; Girard, Y.; Lombardo. D. L.; Maycock, A. L.; Rosenthal, A. S.; Young, R. N.; Zamboni, R.; Zweerink, H. J. Prostaglandins Leukotrienes and Medicine 1984, 13, 21). The amount of LTB4 produced in test and control (approx. 20 ng/10^6 cells) samples are then calculated. Inhibitory dose response curves are constructed using a four-parameter algorithm and from these the IC50 values are determined.

Assay [2] has as its system leukotriene biosynthesis in human polymorphonuclear leukocytes. As to conditions: known inhibitors of leukotriene biosynthesis; cited from earlier work.
The mark [3] stands for this setting: Homo sapiens, calcium ionophore A23187 10 μM, 2.5×10^5 cells, read-out: Human Polymorphonuclear Leucocyte Activity IC50.
[4] abbreviates: standard compounds, human PMN, A23187 10 μM, read-out: IC50 values for LTB4 inhibition.

SMILES strings stand for the structures. Like-named read-outs stand apart in the source and are kept apart here.

Turning to `CCCc1cc2c(c(Br)c1O)CCO2` [Br CH2 CH3 CH3, 2,3-dihydro4-bromo-6-propyl-5-benzofuranol], the IC50 (usually the concentration that gives 50% inhibition) in assay [1] (setting [3]) amounted to 0.049 µM.

As to `Cc1c(O)c(CCCSc2ccccc2)cc2c1CCO2` [CH3 (CH2)3 SC6 H5, 2,3-dihydro-4-methyl-6-(3-(phenylthio)propyl)5-benzofuranol], in assay [1] (setting [3]), the IC50 stood at 0.019 µM.

As for `OCCc1cccc(OCCCc2cc3c(cc2O)CCO3)c1` [H (CH2)3 OC6 H4-3-(CH2)2 OH, 2,3-Dihydro-6-(3-(3-(2-hydroxyethyl)-phenoxy)propyl)-5-benzofuranol], the IC50 in assay [1] (setting [3]) came out at 0.077 µM.

As to `CCCc1ccc(OCCCc2cc3c(cc2O)CCO3)cc1` [H (CH2)3 OC6 H4-4-(CH2)2 CH3, 2,3-dihydro 6-(3-(4-propylphenoxy)propyl)-5-benzofuranol], the IC50 in assay [1] (setting [3]) amounted to 0.009 µM.

For the molecule `OCCc1ccc(OCCCc2cc3c(cc2O)CCO3)cc1` [H (CH2)3 OC6 H4-4-(CH2)2 OH, 2,3-dihydro-6-(3-(4-(2-hydroxyethyl)phenoxy)propyl)-5-benzofuranol], in assay [1] (setting [3]), the IC50 turned out to be 0.041 µM.

As to `Oc1cc2c(cc1CCCOc1ccc(Cl)cc1)OCC2` [H (CH2)3 OC6 H4-4-Cl, 2,3-Dihydro-6-(3-(4-chlorophenoxy)propyl)-5-benzofuranol], the IC50 in assay [1] (setting [3]) is 0.055 µM.

Consider `Oc1cc2c(cc1CCCOc1ccc(F)cc1)OCC2` [H (CH2)3 OC6 H4-4-F, 2,3-dihydro-6-(3-(4-fluorophenoxy)propyl)5-benzofuranol], for which the IC50 in assay [1] (setting [3]) stood at 0.028 µM.

Consider `Oc1cc2c(cc1CCCOc1ccccc1)OCC2` [H (CH2)3 OC6 H5, 2,3-dihydro-6-(3-phenoxypropyl)-5-benzofuranol], for which, in assay [1] (setting [3]), the IC50 worked out at 0.057 µM.

Regarding `Oc1cc2c(cc1CCCSc1ccccc1)OCC2` [H (CH2)3 SC6 H5, 2,3-dihydro-6-(3-(phenylthio)propyl)-5-benzofuranol], in assay [1] (setting [3]), the IC50 came out at 0.019 µM.

Regarding `Oc1cc2c(cc1OCCCc1ccccc1)OCC2` [H O(CH2)3 C6 H5, 2,3-dihydro-6-(3-phenylpropoxy)-5-benzofuranol], the IC50 in assay [1] (setting [3]) was 0.051 µM.

For `COC(=O)c1ccccc1OCCCOc1cc2c(cc1O)CCO2` [H O(CH2)3 OC6 H5-2-CO2 CH3, 2-(3-((2,3-dihydro-5-hydroxy-6-benzofuranyl)oxy)propoxy)benzoic acid methyl ester], the IC50 in assay [1] (setting [3]) was determined as 0.065 µM.

For `COC(=O)c1cccc(OCCCOc2cc3c(cc2O)CCO3)c1` [H O(CH2)3 OC6 H5-3-CO2 CH3, 3-(3-((2,3-dihydro-5-hydroxy-6-benzofuranyl)oxy)propoxy)benzoic acid methyl ester], in assay [1] (setting [3]), the IC50 was determined as 0.056 µM.

For `COC(=O)Cc1ccc(OCCCOc2cc3c(cc2O)CCO3)cc1` [H O(CH2)3 OC6 H5-4-CH2 CO2 CH3, 4-(3-((2,3-dihydro-5-hydroxy-6-benzofuranyl)oxy)propoxy)benzeneacetic acid methyl ester], the IC50 in assay [1] (setting [3]) turned out to be 0.072 µM.

Consider `COC(=O)c1ccc(OCCCOc2cc3c(cc2O)CCO3)cc1` [H O(CH2)3 OC6 H5-4-CO2 CH3, 4-(3-((2,3-dihydro-5-hydroxy-6-benzofuranyl)oxy)propoxy)benzoic acid methyl ester], for which the IC50 in assay [1] (setting [3]) came to 0.071 µM.

For `Oc1cc2c(cc1SCCc1ccccc1)OCC2` [H S(CH2)2 C6 H5, 2,3-dihydro 6 (2 phenylethyl)thio-5-benzofuranol], the IC50 in assay [1] (setting [3]) came to 0.066 µM.

For the molecule `Oc1cc2c(cc1SCCCc1ccccc1)OCC2` [H S(CH2)3 C6 H5, 2,3-dihydro-6-(3-phenylpropyl)thio-5-benzofuranol], the IC50 in assay [1] (setting [3]) came out at 0.028 µM.

With `CC(Cc1ccc(O)c(O)c1)C(C)Cc1ccc(O)c(O)c1` (centres unmarked) [nordihydroguaiacetic acid, reference compound], the IC50 in assay [1] (setting [4]) worked out at 0.086 µM. In addition, the “activity in the human polymorphonuclear leukocytes assay” value in assay [2] is “active”.

For `O=C1CCN(c2ccccc2)N1` [phenidone, reference compound], the IC50 in assay [1] (setting [4]) is 9.25 µM. Moreover, the “activity in the human polymorphonuclear leukocytes assay” value in assay [2] is listed as “active”.
